The values below come from patent US8592456B2 (4SC Discovery GmbH, priority 2011, dated 2013).

The test relates to PBMC (T cell proliferation). Nature of the test: T cell proliferation assay, PHA-stimulated human PBMC (BrdU ELISA). The test is classed as cell-based. The conditions noted are these: human PBMC, 2 μg/ml PHA, 48 hours, BrdU; read-out: D: IC50 (Tcell proliferation). The method, boiled down:
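Healthy-donor human PBMC, Ficoll-isolated, seeded 1×10^5 cells/well in RPMI1640 with 10% dialyzed FCS, stimulated with 2 μg/ml PHA alongside test compound. Proliferation read after 48 hours by BrdU ELISA.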
With `NC(=O)c1c(-c2c(F)cccc2Cl)noc1-c1cnn(-c2cccc(F)c2)c1C(F)(F)F` [Example 124, 3-(2-chloro-6-fluorophenyl)-5-(1-(3-fluorophenyl)-5-(trifluoromethyl)-1H-pyrazol-4-yl)isoxazole-4-carboxamide], the IC50 lay within 1000 to 10000 nM.
`NC(=S)c1c(-c2c(F)cccc2Cl)noc1-c1cnn(-c2cccc(Cl)c2)c1C(F)(F)F` [Example 125, 3-(2-chloro-6-fluorophenyl)-5-(1-(3-chlorophenyl)-5-(trifluoromethyl)-1H-pyrazol-4-yl)isoxazole-4-carbothioamide]: the IC50 was 1000 to 10000 nM.
Turning to `CSC(=O)c1c(-c2c(F)cccc2Cl)noc1-c1cnn(-c2cccc(Cl)c2)c1C(F)(F)F` [Example 126, S-methyl 3-(2-chloro-6-fluorophenyl)-5-(1-(3-chlorophenyl)-5-(trifluoromethyl)-1H-pyrazol-4-yl)isoxazole-4-carbothioate], the IC50 is under 10 nM.
As for `O=C(c1c(-c2c(F)cccc2Cl)noc1-c1cnn(-c2cccc(F)c2)c1C(F)(F)F)N1CCOCC1` [Example 127, (3-(2-chloro-6-fluorophenyl)-5-(1-(3-fluorophenyl)-5-(trifluoromethyl)-1H-pyrazol-4-yl)isoxazol-4-yl)(morpholino)methanone], the IC50 lay in the range of 1000 to 10000 nM.
Then `CSC(=O)c1c(-c2c(F)cccc2Cl)noc1-c1cnn(-c2cccc(F)c2)c1C(F)(F)F` [Example 128, S-methyl 3-(2-chloro-6-fluorophenyl)-5-(1-(3-fluorophenyl)-5-(trifluoromethyl)-1H-pyrazol-4-yl)isoxazole-4-carbothioate], with under 10 nM.
Turning to `CSC(=O)c1c(-c2c(F)cccc2Cl)noc1-c1cnn(-c2ccccc2F)c1C(F)(F)F` [Example 130, S-methyl 3-(2-chloro-6-fluorophenyl)-5-(1-(2-fluorophenyl)-5-(trifluoromethyl)-1H-pyrazol-4-yl)isoxazole-4-carbothioate], the IC50 was under 10 nM.
As to `COC(=O)c1c(-c2c(F)cccc2Cl)noc1-c1cnn(-c2onc(-c3ccc(Cl)cc3)c2C(=O)OC)c1C(F)(F)F` [Example 131, methyl 3-(2-chloro-6-fluorophenyl)-5-{[1-(4-methoxycarbonyl-3-(4-chlorophenyl)isoxazol-5-yl)-5-trifluoromethyl-1H-pyrazol-4-yl]}-isoxazole-4-carboxylate], the IC50 was 1000 to 10000 nM.
For `O=C(c1c(-c2c(F)cccc2Cl)noc1-c1cnn(-c2cccc(Cl)c2)c1C(F)(F)F)N1CCCO1` [Example 132, (3-(2-chloro-6-fluorophenyl)-5-(1-(3-chlorophenyl)-5-(trifluoromethyl)-1H-pyrazol-4-yl)isoxazol-4-yl)(isoxazolidin-2-yl)methanone] the value was 10 to 100 nM; for `NNC(=O)c1c(-c2c(F)cccc2Cl)noc1-c1cnn(-c2cccc(F)c2)c1C(F)(F)F` [Example 133, 3-(2-chloro-6-fluorophenyl)-5-(1-(3-fluorophenyl)-5-(trifluoromethyl)-1H-pyrazol-4-yl)isoxazole-4-carbohydrazide], 1000 to 10000 nM.
Take `NNC(=O)c1c(-c2cccc(F)c2)noc1-c1cnn(-c2cccc(F)c2)c1C(F)(F)F` [Example 134, 3-(3-fluorophenyl)-5-(1-(3-fluorophenyl)-5-(trifluoromethyl)-1H-pyrazol-4-yl)isoxazole-4-carbohydrazide]: the IC50 fell in the range of 1000 to 10000 nM.
Regarding `CON(C)C(=O)c1c(-c2c(F)cccc2Cl)noc1-c1cnn(-c2cccc(F)c2)c1C(F)(F)F` [Example 135, 3-(2-chloro-6-fluorophenyl)-5-(1-(3-fluorophenyl)-5-(trifluoromethyl)-1H-pyrazol-4-yl)-N-methoxy-N-methylisoxazole-4-carboxamide], the IC50 was in the range of 100 to 1000 nM.
Consider `CO/C(=N\c1c(-c2c(F)cccc2Cl)noc1-c1cnn(-c2cccc(F)c2)c1C(F)(F)F)C(F)(F)F` [Example 136, (Z)-methyl N-(3-(2-chloro-6-fluorophenyl)-5-(1-(3-fluorophenyl)-5-(trifluoromethyl)-1H-pyrazol-4-yl)isoxazol-4-yl)-2,2,2-trifluoroacetimidate], for which the IC50 lay in the range of 100 to 1000 nM.
